The numbers were not newly measured in patent publication US11091735B2, “Polyvalent culture medium for anaerobic bacteria under aerobic conditions” (FONDATION MEDITERRANEE INFECTION, priority 2017, dated 2021), which cites them from elsewhere.

For this data set the following is noted: stock solution therefore prepared in ethanol.

As for `Cc1cc(C(C)(C)C)c(O)c(C(C)(C)C)c1` [BHT, Butylhydroxytoluene], the solubility in water entry is recorded as “not soluble in water”.
Regarding vitamin E, the solubility in water result is listed as “not soluble in water”.
